Test results from patent US10105357B2, “Indication of antibiotic drugs for preparation of cancer inhibition pharmaceutical composition” (LAUNX BIOMEDICAL CO., LTD., priority 2014, dated 2018).
Structures can show the parent of a compound that is named as a salt. Where two headings read alike, the source gives them in different places.

Experiments:
[1] = system: TSGH-8301 (Urinary Bladder Carcinoma); test: Cell viability analysis, bladder cancer TSGH-8301; format: cell-based, human; settings: Homo sapiens, 72 h
[2] = system: HCT116 (p53+) (Colorectal Carcinoma); test: cells; settings: Homo sapiens, HCT-116, 72 h, read-out: cell viability (survival rate), HCT116
[3] = read-out: The results of antibiotic drug inhibiting cancer cell lines (cell viability analysis), TSGH-8301, TSGH-8301, repeated experiment
[4] = read-out: cell viability (survival rate), TSGH, drug 10 μM, 72 hours, WST-1, OD450 nm
[5] = TSGH-8301, repeated experiment, read-out: The results of antibiotic drug inhibiting cancer cell lines (cell viability analysis), TSGH-8301
[6] = drug 10 μM, 72 hours, WST-1, OD450 nm, read-out: cell viability (survival rate), TSGH

Compound | viability at 10 µM [1, 3] [%] | viability at 10 µM [1, 4] [%] | viability at 10 µM [1, 5] [%] | viability at 10 µM [1, 6] [%] | viability at 10 µM [2] [%]
Clc1ccc(C(Cn2ccnc2)OCc2ccsc2Cl)c(Cl)c1 (stereo not drawn) [Tioconazole] | 105 | 68.1 | – | – | –
COc1c(C)c2c(c(O)c1C/C=C(\C)CCC(=O)O)C(=O)OC2 [Mycophenolic (Mycophenolate), Mycophenolic] | – | – | 57.5 | 40.3 | –
CC(C)/N=c1\cc2n(-c3ccc(Cl)cc3)c3ccccc3nc-2cc1Nc1ccc(Cl)cc1 [Clofazimine] | – | – | 111 | 51.7 | –
CC(NC(C)(C)C)C(=O)c1cccc(Cl)c1 (stereo not drawn) [Amfebutamone (Bupropion), Amfebutamone] | 116 | 44.9 | – | – | –
NC(=O)N/N=C/c1ccc([N+](=O)[O-])o1 [Nitrofurazone (Nitrofural), Nitrofurazone] | – | – | 83.9 | 32.5 | –
Cc1ncc([N+](=O)[O-])n1CCO [Metronidazole (Flagyl), Metronidazole] | 92.4 | 62 | – | – | –
COc1cc(NC(C)CCCN)c2ncccc2c1 (stereo not drawn) [Primaquine Diphosphate] | 51.5 | 55.5 | – | – | 69.5
CN(C)CCC=C1c2ccccc2CCc2ccccc21 [Amitriptyline HCl] | – | – | 157 | 133 | –
CCc1cc2c(cc1CC)CC(NC[C@H](O)c1ccc(O)c3[nH]c(=O)ccc13)C2 [Indacaterol Maleate] | – | – | – | 56 | –
CC(C)(C)C(=O)OCOP(=O)(COCCn1cnc2c(N)ncnc21)OCOC(=O)C(C)(C)C [Adefovir Dipivoxil (Preveon, Hepsera), Adefovir Dipivoxil] | 70 | 47 | – | – | –
CN(C)[C@@H]1C(O)=C(C(N)=O)C(=O)[C@@]2(O)C(O)=C3C(=O)c4c(O)ccc(Cl)c4[C@@](C)(O)[C@H]3C[C@@H]12 [Chlortetracycline HCl] | 152 | 50.4 | – | – | –
Cc1ccc2c(Cl)cc(Cl)c(O)c2n1 [Chlorquinaldol] | – | – | 87 | 70.5 | –
CCCCCCCCCCCCCCCC[N+](C)(C)CCN(Cc1ccc(OC)cc1)c1ncccn1 [Thonzonium Bromide] | – | – | 16.7 | 18.4 | 32.9
CC(C)(C)CC(C)(C)c1ccc(O)c(Cc2ccc(Cl)cc2Cl)c1 [Clofoctol] | – | – | 109 | 72.3 | 61
Clc1ccc(COC(Cn2ccnc2)c2ccc(Cl)cc2Cl)c(Cl)c1 (stereo not drawn) [Miconazole nitrate] | 102 | 41.8 | – | – | –
CC[C@@H]([C@H](C)O)n1ncn(-c2ccc(N3CCN(c4ccc(OC[C@@H]5CO[C@@](Cn6cncn6)(c6ccc(F)cc6F)C5)cc4)CC3)cc2)c1=O [Posaconazole] | – | – | 81.9 | 51.3 | –
CN(C)[C@@H]1C(O)=C(C(N)=O)C(=O)[C@@]2(O)C(O)=C3C(=O)c4c(O)cccc4[C@@](C)(O)[C@H]3C[C@@H]12 [Tetracycline HCl] | 103 | 34.1 | – | – | –
